Laboratory results from PMC11035592, “Intranasal oxytocin suppresses seizure-like behaviors in a mouse model of NGLY1 deficiency” (Communications Biology, 2024).

What was measured:
[1] = system: patients with NGLY1 deficiency; conditions: cited from earlier work
Excerpt: For epileptic seizures in patients with NGLY1 deficiency, some approved drugs, including levetiracetam, valproate, lamotrigine, and clobazam, have been tested; however, their efficacies were limited.

[2] = Oxytocin levels in plasma, brain and spinal cord 5 min after intranasal oxytocin (enzyme immunoassay); assay type: in vivo, mouse; parameters: Oxytocin level, Thalamus, Mean / Oxytocin level, Hypothalamus, Mean / Oxytocin level, Cortex, Mean / Oxytocin level, Spinal cord, Mean / Oxytocin level, Striatum, Mean / Oxytocin level, Hippocampus, Mean: unit not given here; conditions: for Oxytocin level, Cortex, Mean / Oxytocin level, Hippocampus, Mean / Oxytocin level, Hypothalamus, Mean / Oxytocin level, Plasma, Mean / Oxytocin level, Spinal cord, Mean / Oxytocin level, Striatum, Mean / Oxytocin level, Thalamus, Mean: mean of n = 3; for Oxytocin level, Cortex, % of Control / Oxytocin level, Hippocampus, % of Control / Oxytocin level, Hypothalamus, % of Control / Oxytocin level, Spinal cord, % of Control / Oxytocin level, Striatum, % of Control / Oxytocin level, Thalamus, % of Control: mean, figure corresponds to % of the plasma 0 mg/kg mean; for Oxytocin level, Plasma, % of Control: mean as % of 0 mg/kg plasma mean
Experimental: Delivery of intranasal oxytocin to the central nervous system was confirmed using 17 to 18-week-old female Ngly1^−/− mice.
Fig. 5 Oxytocin levels in the plasma, brain, and spinal cord of Ngly1^−/− mice after intranasal administration of oxytocin. Oxytocin (10, 100 mg/kg) or saline was intranasally administered to female Ngly1^−/− mice (17 or 18-week-old) under anesthesia with 2.5% isoflurane (a). b Plasma, c hippocampus, d striatum, e cerebral cortex, f spinal cord, g thalamus, and h hypothalamus were collected 5 min after the single administration. Oxytocin levels were measured using enzyme immunoassay. Data represent mean + standard deviation and individual values (N = 3). […]
Oxytocin peptide (CAS number 50-56-6) was purchased from AA Blocks (San Diego, CA, USA) and dissolved in saline at a maximum concentration of 200 mg/mL. Female Ngly1^−/− mice were anesthetized with 2.5% isoflurane and intranasally administered with oxytocin using a manual pipette at a volume of 0.5 ml/kg. Oxytocin solutions were prepared in Protein LoBind Tubes (Eppendorf, Hamburg, Germany) just before the intranasal administration.

[3] = system: generally healthy older men (55–95 years old); conditions: chronic intranasal administration, twice daily for four weeks; cited from earlier work
Excerpt: (§1) The safety of single or chronic intranasal oxytocin administration has been investigated in several clinical studies. […] Based on these clinical studies, oxytocin has the potential to be administered to patients with NG ...

[4] = system: school-age children (8–12 years old); conditions: 90 min and 24 h after a single intranasal administration; cited from earlier work
Excerpt: as §1

[5] = female Ngly1−/− mice, 17 to 18-week-old, 10 or 100 mg/kg single intranasal, 5 min after administration, enzyme immunoassay, N = 3, vs saline

CN1C(=O)CC(=O)N(c2ccccc2)c2cc(Cl)ccc21 [clobazam]
efficacy for epileptic seizures [1]: limited

Nc1nnc(-c2cccc(Cl)c2Cl)c(N)n1 [lamotrigine]
efficacy for epileptic seizures [1]: limited

CC[C@@H](C(N)=O)N1CCCC1=O [levetiracetam]
efficacy for epileptic seizures [1]: limited

CC[C@H](C)[C@@H]1NC(=O)[C@H](Cc2ccc(O)cc2)NC(=O)[C@@H](N)CSSC[C@@H](C(=O)N2CCC[C@H]2C(=O)N[C@@H](CC(C)C)C(=O)NCC(N)=O)NC(=O)[C@H](CC(N)=O)NC(=O)[C@H](CCC(N)=O)NC1=O [oxytocin, Oxytocin]
Oxytocin level, Cortex, Mean ([2]; 10 mg/kg intranasal): 2.20
Oxytocin level, Cortex, % of Control ([2]; 10 mg/kg intranasal): 0.776%
Oxytocin level, Cortex, Mean ([2]; 100 mg/kg intranasal): 15.07
Oxytocin level, Cortex, % of Control ([2]; 100 mg/kg intranasal): 5.31%
Oxytocin level, Hippocampus, Mean ([2]; 10 mg/kg intranasal): 8.47
Oxytocin level, Hippocampus, % of Control ([2]; 10 mg/kg intranasal): 3%
Oxytocin level, Hippocampus, Mean ([2]; 100 mg/kg intranasal): 23.47
Oxytocin level, Hippocampus, % of Control ([2]; 100 mg/kg intranasal): 8%
Oxytocin level, Hypothalamus, Mean ([2]; 10 mg/kg intranasal): 87.40
Oxytocin level, Hypothalamus, % of Control ([2]; 10 mg/kg intranasal): 31%
Oxytocin level, Hypothalamus, Mean ([2]; 100 mg/kg intranasal): 132.73
Oxytocin level, Hypothalamus, % of Control ([2]; 100 mg/kg intranasal): 47%
Oxytocin level, Plasma, % of Control ([2]; 10 mg/kg intranasal): 4479%
Oxytocin level, Plasma, Mean ([2]; 10 mg/kg intranasal): 12705.67
Oxytocin level, Plasma, % of Control ([2]; 100 mg/kg intranasal): 26235%
Oxytocin level, Plasma, Mean ([2]; 100 mg/kg intranasal): 74420.67
Oxytocin level, Spinal cord, Mean ([2]; 10 mg/kg intranasal): 2.17
Oxytocin level, Spinal cord, % of Control ([2]; 10 mg/kg intranasal): 0.764%
Oxytocin level, Spinal cord, Mean ([2]; 100 mg/kg intranasal): 4.10
Oxytocin level, Spinal cord, % of Control ([2]; 100 mg/kg intranasal): 1.45%
Oxytocin level, Striatum, Mean ([2]; 10 mg/kg intranasal): 2.60
Oxytocin level, Striatum, % of Control ([2]; 10 mg/kg intranasal): 0.917%
Oxytocin level, Striatum, Mean ([2]; 100 mg/kg intranasal): 24.23
Oxytocin level, Striatum, % of Control ([2]; 100 mg/kg intranasal): 8.54%
Oxytocin level, Thalamus, Mean ([2]; 10 mg/kg intranasal): 3.40
Oxytocin level, Thalamus, % of Control ([2]; 10 mg/kg intranasal): 1.2%
Oxytocin level, Thalamus, Mean ([2]; 100 mg/kg intranasal): 42.47
Oxytocin level, Thalamus, % of Control ([2]; 100 mg/kg intranasal): 15%
increasing trend of oxytocin level in hypothalamus [2, 5]: not observed
oxytocin level in cerebral cortex [2, 5]: increased
oxytocin level in hippocampus [2, 5]: increased
oxytocin level in plasma [2, 5]: increased
oxytocin level in spinal cord [2, 5]: increased
oxytocin level in striatum [2, 5]: increased
oxytocin level in thalamus [2, 5]: increasing trend
tolerability [3]: well-tolerated
side-effects [4]: no side-effect

CCCC(CCC)C(=O)O [valproate]
efficacy for epileptic seizures [1]: limited
